From patent US4287189A, “O,S-Dialkyl O-oxysulfonylphenyl phosphorothiolates and phosphorodithioates” (priority 1980, dated 1981) come the findings set out here.

In assay [1] the test system is Two-spotted spider mite (TSM). Description: Mite test, sprayed infested bean leaf discs, percent killed after 24 hours. Format: in vivo. The conditions noted are these: Tetranychus urticae, foliar, lethal concentration at which 50% of the pests are killed. From the text:
Two-spotted spider mite
(§1) A test solution containing 600 ppm of test compound is made by dissolving the test compound in a solvent (acetone:methanol, 1:1), adding surfactant and then water to give an acetone:methanol:water system of 10:10:80. A 1:1 mixture of an alkylarylpolyether-alcohol (commercially available under the trademark Triton X-155) and a modified phthalic glycerol alkyd resin (commercially available under the trademark Triton B-1956) can be utilized at the equivalent of one ounce per gallon of test solution as a surfactant.
(§2) For the mite test, infested bean (Phaseolus limeanus) leaf discs (1.25 inches in diameter) containing about 50 mites and for green peach aphid tests, infested broccoli (Brassica oleracea italica) leaves or portions thereof containing about 50 aphids are placed in a Petri dish lid on a moistened piece of cotton. The leaves are then sprayed with the test solution using a rotating turntable. They are held for 24 hours and then the percent killed is determined.

A further assay concerns Southern armyworm (AW). Briefly: Armyworm test, sprayed bean leaves infested with third instar larvae, percent killed after 48 hours. Type of assay: in vivo. As to conditions: Spodoptera eridania, lethal concentration at which 50% of the pests are killed.
From the text: as §1
(§3) For the bean beetle and armyworm test, detached bean leaves on pieces of moistened filter paper are sprayed as above for the mite test in similar dishes and allowed to dry. One such dish is infested with 10 third instar Mexican bean beetle larvae, while another is infested with 10 third instar southern armyworm larvae. The dishes are covered. After holding for 48 hours, the percent killed is obtained.

The next assay concerns Boll weevil (BW). Description: Boll weevil test, sprayed jars with adult boll weevils, percent kill after 48 hours. Format: in vivo. The conditions noted are these: Anthonomus grandis, lethal concentration at which 50% of the pests are killed.
From the text: as §1
For the boll weevil and house fly tests, half pint glass canning jars with a screened top are used. Food is supplied for the boll weevil (apple) and for the house fly (sugar water). The test insects consist of 10 adult boll weevils and 20 adult house flies. The jars containing the insects are sprayed using the turntable. The percent kill of boll weevil is determined 48 hours after the application. In the house fly test, a percent knockdown is determined one hour after application, the percent kill after 24 hours.

The subject of a further assay is Corn rootworm larva. Description: Southern corn rootworm larvae test, sprayed filter paper, 6 days. Type of assay: in vivo, Diabrotica undecimpunctata howardi. As to conditions: 144 h, lethal concentration at which 50% of the pests are killed.
From the text: (§4) Diabrotica undecimpunctata howardi
as §1
(§5) For tests involving the southern corn rootworm ova and larvae, two layers of 4.25 cm. filter papers are placed in small, Petri dishes, and sprayed on the turntable with a 600 ppm solution of the test compound and air dried. About 100 eggs in about one milliliter of water are pipetted onto the filter paper and the dishes covered. These are held for 6 days and examined under the microscope. The percent kill values for ova and larvae are determined.

Another assay deals with Green peach aphid (GPA). Briefly: Green peach aphid test, sprayed infested broccoli leaves, percent killed after 24 hours. Format: in vivo. As to conditions: Myzus persicae, lethal concentration at which 50% of the pests are killed.
From the text: as §1, §2

The test system of a further assay is Corn rootworm ova. Description: Southern corn rootworm ova test, sprayed filter paper, 6 days. Type of assay: in vivo, Diabrotica undecimpunctata howardi. The conditions noted are these: 144 h, lethal concentration at which 50% of the pests are killed.
From the text: as §4, §1, §5

The next assay concerns Mexican bean beetle (BB). Description: Bean beetle test, sprayed bean leaves infested with third instar larvae, percent killed after 48 hours. Type of assay: in vivo. As to conditions: Epilachna varivestis, lethal concentration at which 50% of the pests are killed.
From the text: Mexican bean beetle (BB)
as §1, §3

The structures appear in SMILES notation. Converted amounts (≈) assume the structure as drawn.

Turning to `CCCSP(=O)(OCC)Oc1ccc(S(=O)(=O)Oc2ccccc2)cc1` (centres unmarked) [Example II, O-Ethyl O-[4-(phenoxysulfonyl)phenyl]S-n-propyl phosphorothiolate], the LC50 (usually the concentration lethal to half of the exposed cells or organisms) in assay [1] is 9.8 µg/mL (≈ 23.5 µM); in the assay with Southern armyworm (AW), 32 µg/mL (≈ 76.8 µM); in the assay on Boll weevil (BW) it was 345 µg/mL (≈ 828 µM); with Corn rootworm larva, 32 µg/mL (≈ 76.8 µM); with Green peach aphid (GPA), 7.5 µg/mL (≈ 18 µM); with Corn rootworm ova, over 600 µg/mL. The same compound returned a 50% lethal concentration (LC50) in the assay on Mexican bean beetle (BB) of 75 µg/mL (≈ 180 µM).
In the case of `CCCSP(=O)(OCC)Oc1ccc(S(=O)(=O)Oc2ccc([N+](=O)[O-])cc2)cc1` (centres unmarked) [III, O-Ethyl-O-[4-(4'-nitrophenoxysulfonyl)phenyl]S-n-propyl phosphorothiolate], the 50% lethal concentration (LC50) in assay [1] was 5 µg/mL (≈ 10.8 µM); in the assay on Southern armyworm (AW), 45 µg/mL (≈ 97.5 µM); with Boll weevil (BW) it was over 600 µg/mL; in the assay on Corn rootworm larva it was 75 µg/mL (≈ 163 µM); with Green peach aphid (GPA), 6.2 µg/mL (≈ 13.4 µM); with Corn rootworm ova, over 600 µg/mL. The compound also had a 50% lethal concentration (LC50) in the assay with Mexican bean beetle (BB) of 75 µg/mL (≈ 163 µM).
For the compound `CCCSP(=O)(OCC)Oc1ccc(S(=O)(=O)Oc2ccc(Cl)cc2)cc1` (centres unmarked) [IV, O-[4-(4'-chlorophenoxysulfonyl)phenyl]O-ethyl S-n-propyl phosphorothiolate], the LC50 in assay [1] is 2.9 µg/mL (≈ 6.43 µM); in the assay with Southern armyworm (AW) it was 75 µg/mL (≈ 166 µM); in the assay with Boll weevil (BW), 138 µg/mL (≈ 306 µM); in the assay with Corn rootworm larva it was 4.1 µg/mL (≈ 9.09 µM); in the assay on Green peach aphid (GPA), 2.5 µg/mL (≈ 5.54 µM); in the assay with Corn rootworm ova it was 142 µg/mL (≈ 315 µM). Further, the LC50 in the assay with Mexican bean beetle (BB) amounted to 75 µg/mL (≈ 166 µM).
As for `CCOP(=O)(Oc1ccc(S(=O)(=O)Oc2ccccc2)cc1)SC(C)CC` (centres unmarked) [IX, S-sec-Butyl O-ethyl O-[4-(phenoxysulfonyl)phenyl]phosphorothiolate], the 50% lethal concentration (LC50) in assay [1] was 5.8 µg/mL (≈ 13.5 µM); in the assay with Southern armyworm (AW), 45 µg/mL (≈ 105 µM); in the assay with Boll weevil (BW), 75 µg/mL (≈ 174 µM); in the assay with Corn rootworm larva it was 8.4 µg/mL (≈ 19.5 µM); with Green peach aphid (GPA), 2.8 µg/mL (≈ 6.5 µM); in the assay with Corn rootworm ova it was 230 µg/mL (≈ 534 µM). In the assay on Mexican bean beetle (BB), this compound yielded a median lethal concentration (LC50) of 15 µg/mL (≈ 34.8 µM).
Turning to `CCCSP(=O)(OCC)Oc1ccc(S(=O)(=O)Oc2ccc(C#N)cc2)cc1` (centres unmarked) [VI, O-[4-(4'-cyanophenoxysulfonyl)phenyl]O-ethyl S-n-propyl phoshorothiolate], the median lethal concentration (LC50) in assay [1] was 6.8 µg/mL (≈ 15.4 µM); in the assay on Southern armyworm (AW) it was 41 µg/mL (≈ 92.9 µM); in the assay on Boll weevil (BW), over 600 µg/mL; in the assay with Corn rootworm larva, 38 µg/mL (≈ 86.1 µM); with Green peach aphid (GPA), 18 µg/mL (≈ 40.8 µM); in the assay on Corn rootworm ova, over 600 µg/mL. This compound also registered a median lethal concentration (LC50) in the assay with Mexican bean beetle (BB) of 49 µg/mL (≈ 111 µM).
As to `CCCSP(=O)(OCC)Oc1ccc(S(=O)(=O)Oc2ccc(SC)cc2)cc1` (centres unmarked) [VII, O-Ethyl-O-[4-(4'-methylthiophenoxysulfonyl)phenyl]S-n-propyl phosphorothiolate], the LC50 was 2.4 µg/mL (≈ 5.19 µM) in assay [1]; 27 µg/mL (≈ 58.4 µM) in the assay on Southern armyworm (AW); 550 µg/mL (≈ 1190 µM) in the assay on Boll weevil (BW); 130 µg/mL (≈ 281 µM) in the assay on Corn rootworm larva; 6.4 µg/mL (≈ 13.8 µM) in the assay on Green peach aphid (GPA); over 600 µg/mL with Corn rootworm ova. For the same compound, in the assay with Mexican bean beetle (BB), the median lethal concentration (LC50) was 162 µg/mL (≈ 350 µM).
`CCCSP(=O)(OCC)Oc1ccc(S(=O)(=O)Oc2ccc(C)cc2)cc1` (centres unmarked) [VIII, O-Ethyl-O-[4-(4'-methylphenoxysulfonyl)phenyl]S-n-propyl phosphorothiolate]: the LC50 is 20 µg/mL (≈ 46.5 µM) in assay [1]; 75 µg/mL (≈ 174 µM) with Southern armyworm (AW); over 600 µg/mL with Boll weevil (BW); 33 µg/mL (≈ 76.7 µM) in the assay with Corn rootworm larva; 7.5 µg/mL (≈ 17.4 µM) with Green peach aphid (GPA); 550 µg/mL (≈ 1280 µM) in the assay with Corn rootworm ova. In the assay with Mexican bean beetle (BB), the 50% lethal concentration (LC50) amounted to 150 µg/mL (≈ 348 µM).
Turning to `CCOP(=O)(Oc1ccc(S(=O)(=O)Oc2ccccc2)cc1)SCC(C)C` (centres unmarked) [XI, O-Ethyl S-isobutyl O-[4-(phenoxysulfonyl)phenyl]phosphorothiolate], the LC50 is 6.6 µg/mL (≈ 15.3 µM) in assay [1]; 49 µg/mL (≈ 114 µM) in the assay on Southern armyworm (AW); 75 µg/mL (≈ 174 µM) in the assay with Boll weevil (BW); 142 µg/mL (≈ 330 µM) in the assay with Corn rootworm larva; 1.3 µg/mL (≈ 3.02 µM) in the assay on Green peach aphid (GPA); over 600 µg/mL in the assay with Corn rootworm ova. This compound registered an LC50 in the assay on Mexican bean beetle (BB) of 26 µg/mL (≈ 60.4 µM).
Regarding `CCCSP(=O)(OC)Oc1ccc(S(=O)(=O)Oc2ccc([N+](=O)[O-])cc2)cc1` (centres unmarked) [XII, O-Methyl O-[4-(4'-nitrophenoxysulfonyl)phenyl]S-n-propyl phosphorothiola], the LC50 was 6.6 µg/mL (≈ 14.8 µM) in assay [1]; 45 µg/mL (≈ 101 µM) with Southern armyworm (AW); 500 µg/mL (≈ 1120 µM) with Boll weevil (BW); 75 µg/mL (≈ 168 µM) in the assay with Corn rootworm larva; 26 µg/mL (≈ 58.1 µM) in the assay with Green peach aphid (GPA); over 600 µg/mL in the assay on Corn rootworm ova. Also, the 50% lethal concentration (LC50) in the assay with Mexican bean beetle (BB) stood at 54 µg/mL (≈ 121 µM).
With `CCCSP(=S)(OCC)Oc1ccc(S(=O)(=O)Oc2ccccc2)cc1` (centres unmarked) [XIII, O-Ethyl O-[4-(phenoxysulfonyl)phenyl]S-n-propyl phosphorodithiolate], the LC50 in assay [1] was 8 µg/mL (≈ 18.5 µM); in the assay on Southern armyworm (AW), 75 µg/mL (≈ 173 µM); with Boll weevil (BW), 150 µg/mL (≈ 347 µM); with Corn rootworm larva, 10 µg/mL (≈ 23.1 µM); with Green peach aphid (GPA), 38 µg/mL (≈ 87.9 µM); with Corn rootworm ova, over 600 µg/mL. The LC50 with Mexican bean beetle (BB) turned out to be 150 µg/mL (≈ 347 µM).
Take `CCCCSP(=O)(OCC)Oc1ccc(S(=O)(=O)Oc2ccccc2)cc1` (centres unmarked) [X]: the LC50 in assay [1] was 5 µg/mL (≈ 11.6 µM); in the assay on Southern armyworm (AW), 41 µg/mL (≈ 95.2 µM); with Boll weevil (BW), over 600 µg/mL; in the assay with Corn rootworm larva it was 75 µg/mL (≈ 174 µM); with Green peach aphid (GPA), 8.6 µg/mL (≈ 20 µM); in the assay with Corn rootworm ova, over 600 µg/mL. The LC50 with Mexican bean beetle (BB) came out at 27 µg/mL (≈ 62.7 µM).
